IC50, Emax and CLH data for 10 molecules are collected here from ChEMBL document CHEMBL5500422, “New Horizons of Synthetic Lethality in Cancer: Current Development and Future Perspectives” (J Med Chem, 2024).

A short description of data set [1]: Antiproliferative activity against human UWB1289 cells harboring BRCA1 assessed inhibition of cell growth incubated for 48 hrs by MTT assay. It counts as functional, cell-based. The note with it: UWB1289, 48 h.
Data set [2] concerns the target von Hippel-Lindau disease tumor suppressor/SWI/SNF-related matrix-associated actin-dependent regulator of chromatin subfamily A member 2 (Homo sapiens) (UniProt P51531+P40337). In words: PROTAC activity at VHL/SMARCA2 in human NCI-H838 cells assessed as induction of SMARCA2 degradation at 0.001 to 1000 nM incubated for 24 hrs by Western blotting analysis relative to control. The note with it: dose 0.001-1000 nM. The format is cell-based. (A western blot detects proteins with antibodies after separation by electrophoresis.)

The target in data set [3] is von Hippel-Lindau disease tumor suppressor/SWI/SNF-related matrix-associated actin-dependent regulator of chromatin subfamily A member 4 (Homo sapiens) (UniProt P51532+P40337). In words: PROTAC activity at VHL/SMARCA4 in human MV4-11 cells assessed as induction of SMARCA4 degradation by measuring maximal efficacy incubated for 18 hrs by Western blotting analysis relative to control. It counts as cell-based.

Data set [4] addresses T1, DNA repair protein RAD52 homolog (Homo sapiens, UniProt P43351).
T1 sequence (P43351 whole entry): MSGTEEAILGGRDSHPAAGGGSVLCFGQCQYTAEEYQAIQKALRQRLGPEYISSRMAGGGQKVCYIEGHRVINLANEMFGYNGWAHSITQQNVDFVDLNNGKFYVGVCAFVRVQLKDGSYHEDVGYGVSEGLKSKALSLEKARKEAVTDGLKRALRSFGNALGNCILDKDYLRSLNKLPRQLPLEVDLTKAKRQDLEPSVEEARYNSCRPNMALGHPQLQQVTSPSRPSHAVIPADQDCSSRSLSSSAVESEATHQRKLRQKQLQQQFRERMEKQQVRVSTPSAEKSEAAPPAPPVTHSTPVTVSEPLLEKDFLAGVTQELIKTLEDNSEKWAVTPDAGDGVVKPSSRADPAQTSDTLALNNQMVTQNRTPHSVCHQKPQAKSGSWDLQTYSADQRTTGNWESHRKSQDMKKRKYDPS
In words: Inhibition of RAD52 (unknown origin) by FRET analysis.

The target in data set [5] is DNA-dependent protein kinase catalytic subunit (Homo sapiens, UniProt P78527).
Description: Inhibition of DNA-PK in human HCT-116 cells measured after 1 hr by Bradford assay
Data set [6] can be described thus: Intrinsic clearance in mouse liver microsomes. The format is ADME, Microsome. In general terms: Microsomes from liver hold many membrane-bound enzymes, among them those of drug oxidation.
Data set [7] deals with T2, Ubiquitin carboxyl-terminal hydrolase 1 (Homo sapiens, UniProt O94782).
T2 sequence (O94782 whole entry): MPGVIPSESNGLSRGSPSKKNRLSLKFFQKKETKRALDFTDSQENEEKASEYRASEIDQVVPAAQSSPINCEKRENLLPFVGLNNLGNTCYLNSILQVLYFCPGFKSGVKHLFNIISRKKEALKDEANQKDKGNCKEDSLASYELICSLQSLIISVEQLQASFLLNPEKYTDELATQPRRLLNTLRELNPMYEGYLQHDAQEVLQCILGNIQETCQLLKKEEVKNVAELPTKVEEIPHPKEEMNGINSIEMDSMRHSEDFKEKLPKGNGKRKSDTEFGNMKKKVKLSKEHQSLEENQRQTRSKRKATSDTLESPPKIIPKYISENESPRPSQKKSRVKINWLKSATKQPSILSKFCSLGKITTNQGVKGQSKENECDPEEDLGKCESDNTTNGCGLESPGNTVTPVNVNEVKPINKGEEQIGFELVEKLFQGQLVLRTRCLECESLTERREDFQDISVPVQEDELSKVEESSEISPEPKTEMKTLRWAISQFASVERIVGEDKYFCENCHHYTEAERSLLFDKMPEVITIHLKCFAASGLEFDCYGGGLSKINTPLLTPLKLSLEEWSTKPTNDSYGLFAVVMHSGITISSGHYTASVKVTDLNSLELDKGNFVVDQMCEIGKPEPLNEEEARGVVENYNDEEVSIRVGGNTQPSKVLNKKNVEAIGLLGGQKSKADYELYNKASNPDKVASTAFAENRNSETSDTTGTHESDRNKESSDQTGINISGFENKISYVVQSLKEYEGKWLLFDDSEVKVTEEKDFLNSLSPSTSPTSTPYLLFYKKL
In words: Inhibition of human recombinant USP1 expressed in baculovirus expressed in Bac-to-Bac baculovirus expression system.

A further data set concerns LoVo. In words: Antiproliferative activity against human LoVo cells assessed as reduction in cell viability measured for 48 hrs byT assay. It counts as functional, cell-based.
Another data set has as its system HEK293. In words: Antiproliferative activity against HEK293 cells assessed as inhibition of cell growth incubated for 48 hrs by CCK8 assay. The note with it: Homo sapiens, HEK293, 48 h. The format is functional, cell-based. In general terms: Formazan colour is commonly taken as a measure of viable cells.
A short description of data set [8]: Intrinsic clearance in human liver microsomes. It counts as ADME, Microsome.

von Hippel-Lindau disease tumor suppressor/SWI/SNF-related matrix-associated actin-dependent regulator of chromatin subfamily A member 2 (Homo sapiens), sequence (P40337 whole entry, looked up): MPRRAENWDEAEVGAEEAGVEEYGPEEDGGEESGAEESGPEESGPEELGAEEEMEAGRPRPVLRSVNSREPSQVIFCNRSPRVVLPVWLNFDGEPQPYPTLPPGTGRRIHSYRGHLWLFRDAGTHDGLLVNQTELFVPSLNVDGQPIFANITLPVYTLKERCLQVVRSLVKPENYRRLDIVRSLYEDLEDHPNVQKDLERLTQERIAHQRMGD
von Hippel-Lindau disease tumor suppressor/SWI/SNF-related matrix-associated actin-dependent regulator of chromatin subfamily A member 2 (Homo sapiens), sequence (P51531 whole entry, looked up): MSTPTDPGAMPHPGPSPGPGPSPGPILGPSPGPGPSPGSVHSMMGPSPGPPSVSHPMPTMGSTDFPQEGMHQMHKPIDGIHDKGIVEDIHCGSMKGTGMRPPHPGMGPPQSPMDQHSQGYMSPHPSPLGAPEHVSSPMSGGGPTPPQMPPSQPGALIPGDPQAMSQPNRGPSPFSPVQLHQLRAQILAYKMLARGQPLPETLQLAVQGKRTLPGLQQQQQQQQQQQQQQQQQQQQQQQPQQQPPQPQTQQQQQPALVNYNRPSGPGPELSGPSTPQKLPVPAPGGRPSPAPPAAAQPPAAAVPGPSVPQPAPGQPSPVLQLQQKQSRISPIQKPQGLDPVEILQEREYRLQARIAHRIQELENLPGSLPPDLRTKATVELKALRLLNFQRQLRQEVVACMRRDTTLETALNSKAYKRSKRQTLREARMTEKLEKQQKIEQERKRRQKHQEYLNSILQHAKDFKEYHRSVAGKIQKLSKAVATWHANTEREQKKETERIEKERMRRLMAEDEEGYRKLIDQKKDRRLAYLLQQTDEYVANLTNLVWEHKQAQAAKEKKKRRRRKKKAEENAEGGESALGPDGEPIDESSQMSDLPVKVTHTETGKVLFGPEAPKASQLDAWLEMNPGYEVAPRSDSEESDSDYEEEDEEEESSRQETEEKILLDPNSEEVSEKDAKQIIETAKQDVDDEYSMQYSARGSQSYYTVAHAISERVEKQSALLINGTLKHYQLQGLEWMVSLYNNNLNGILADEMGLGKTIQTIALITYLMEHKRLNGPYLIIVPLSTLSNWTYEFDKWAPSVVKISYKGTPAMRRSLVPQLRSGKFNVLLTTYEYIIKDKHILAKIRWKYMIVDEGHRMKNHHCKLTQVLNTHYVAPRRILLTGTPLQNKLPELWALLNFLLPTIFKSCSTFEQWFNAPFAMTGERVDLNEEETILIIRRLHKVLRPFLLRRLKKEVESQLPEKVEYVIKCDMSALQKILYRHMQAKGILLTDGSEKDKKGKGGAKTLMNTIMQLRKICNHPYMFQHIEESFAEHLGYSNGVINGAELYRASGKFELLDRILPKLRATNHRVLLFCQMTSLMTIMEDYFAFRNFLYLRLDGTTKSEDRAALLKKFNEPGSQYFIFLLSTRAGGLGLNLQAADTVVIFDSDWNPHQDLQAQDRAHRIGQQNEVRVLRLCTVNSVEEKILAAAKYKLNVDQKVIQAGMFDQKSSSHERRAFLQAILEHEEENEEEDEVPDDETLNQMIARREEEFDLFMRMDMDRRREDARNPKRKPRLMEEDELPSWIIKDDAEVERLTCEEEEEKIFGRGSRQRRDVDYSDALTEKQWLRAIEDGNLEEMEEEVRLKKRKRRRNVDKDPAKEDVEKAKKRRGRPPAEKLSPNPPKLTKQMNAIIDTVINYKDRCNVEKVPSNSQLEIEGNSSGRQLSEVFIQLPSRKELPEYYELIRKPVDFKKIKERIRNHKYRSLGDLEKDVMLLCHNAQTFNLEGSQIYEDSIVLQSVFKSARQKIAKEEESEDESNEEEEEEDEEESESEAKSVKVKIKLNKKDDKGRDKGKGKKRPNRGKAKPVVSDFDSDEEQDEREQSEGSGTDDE
von Hippel-Lindau disease tumor suppressor/SWI/SNF-related matrix-associated actin-dependent regulator of chromatin subfamily A member 4 (Homo sapiens), sequence (P40337 whole entry, looked up): as the sequence (P40337 whole entry, looked up) above
von Hippel-Lindau disease tumor suppressor/SWI/SNF-related matrix-associated actin-dependent regulator of chromatin subfamily A member 4 (Homo sapiens), sequence (P51532 whole entry, looked up): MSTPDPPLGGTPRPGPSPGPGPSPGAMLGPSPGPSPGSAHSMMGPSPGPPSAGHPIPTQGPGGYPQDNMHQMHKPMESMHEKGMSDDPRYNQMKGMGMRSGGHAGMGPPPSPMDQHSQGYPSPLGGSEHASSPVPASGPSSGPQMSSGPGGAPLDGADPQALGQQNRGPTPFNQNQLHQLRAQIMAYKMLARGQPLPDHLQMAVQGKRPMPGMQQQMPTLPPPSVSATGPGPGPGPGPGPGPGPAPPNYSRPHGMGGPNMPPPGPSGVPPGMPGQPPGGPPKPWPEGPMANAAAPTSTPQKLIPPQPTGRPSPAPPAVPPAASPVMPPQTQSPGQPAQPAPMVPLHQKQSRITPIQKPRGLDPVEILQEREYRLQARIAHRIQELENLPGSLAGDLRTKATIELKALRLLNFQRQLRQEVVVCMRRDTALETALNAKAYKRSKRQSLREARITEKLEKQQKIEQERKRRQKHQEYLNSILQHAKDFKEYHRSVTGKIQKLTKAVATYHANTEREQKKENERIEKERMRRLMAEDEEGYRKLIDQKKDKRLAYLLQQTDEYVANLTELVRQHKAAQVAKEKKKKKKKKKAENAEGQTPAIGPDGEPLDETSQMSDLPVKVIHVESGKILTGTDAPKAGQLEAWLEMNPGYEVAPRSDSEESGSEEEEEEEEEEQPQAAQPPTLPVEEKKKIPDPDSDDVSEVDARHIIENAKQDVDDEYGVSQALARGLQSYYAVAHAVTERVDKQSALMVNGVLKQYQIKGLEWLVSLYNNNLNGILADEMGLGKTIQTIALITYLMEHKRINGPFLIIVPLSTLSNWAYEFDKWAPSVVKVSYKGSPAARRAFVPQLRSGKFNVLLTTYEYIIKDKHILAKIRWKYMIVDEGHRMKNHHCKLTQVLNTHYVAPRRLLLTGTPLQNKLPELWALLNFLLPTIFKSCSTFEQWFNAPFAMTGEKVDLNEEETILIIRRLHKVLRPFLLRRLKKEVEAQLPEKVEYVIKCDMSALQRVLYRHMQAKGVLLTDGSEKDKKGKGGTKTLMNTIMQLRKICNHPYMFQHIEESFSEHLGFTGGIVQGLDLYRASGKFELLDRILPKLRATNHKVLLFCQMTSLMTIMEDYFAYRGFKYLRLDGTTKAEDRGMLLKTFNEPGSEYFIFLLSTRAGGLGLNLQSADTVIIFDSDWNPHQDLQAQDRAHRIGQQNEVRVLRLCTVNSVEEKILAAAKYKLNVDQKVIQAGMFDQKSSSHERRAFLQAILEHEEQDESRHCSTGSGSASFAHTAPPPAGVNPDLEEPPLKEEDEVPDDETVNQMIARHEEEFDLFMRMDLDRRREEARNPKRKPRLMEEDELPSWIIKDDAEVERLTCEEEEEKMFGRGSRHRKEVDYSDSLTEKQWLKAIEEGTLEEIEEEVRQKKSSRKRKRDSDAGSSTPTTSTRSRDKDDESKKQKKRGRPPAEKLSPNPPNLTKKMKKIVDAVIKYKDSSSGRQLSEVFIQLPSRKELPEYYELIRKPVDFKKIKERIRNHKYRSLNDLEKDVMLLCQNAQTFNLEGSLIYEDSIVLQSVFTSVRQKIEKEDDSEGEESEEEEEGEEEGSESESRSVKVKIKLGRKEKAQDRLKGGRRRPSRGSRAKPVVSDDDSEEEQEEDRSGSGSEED

The IC50 is the point on the concentration scale where inhibition reaches its midpoint. In data set [1], `Cc1cccc(N(C)C(=O)[C@@H]2[C@H](O)CCN2c2nc(C)cc(C(F)(F)F)c2C#N)c1` yielded a half-maximal inhibitory concentration (IC50) of 7.9 nM.
The term Emax denotes the greatest response seen or fitted, relative to the assay's reference. `Cc1ncsc1-c1ccc([C@H](CC[C@H](C)CCN2CCC(c3ccc4c(c3)n(C3CCCC3)c3nc(=O)c5c(Br)cccc5n43)CC2)NC(=O)[C@@H]2C[C@@H](O)CN2C(=O)[C@@H](NC(=O)C2(F)CC2)C(C)(C)C)cc1`: the maximal response (Emax) worked out at 81% in [2] and 67% in data set [3].
`O=C(Cn1cccc([N+](=O)[O-])c1=O)c1c[nH]c2ccccc12`: the IC50 in data set [4] was determined as 2000 nM.
As to `CC(C)NCCOc1ncc(-c2cc3c4c(cnc3cc2F)N(C)C(=O)C42CCC2)cc1NS(C)(=O)=O`, the IC50 in data set [5] was found to be 0.89 nM.
The molecule `Cn1c(=O)c2cc(S(=O)(=O)NC3(C)CC3)ccc2n(C)c1=O` came in with a CLH in [6] of 211 µL/min/mg.
On to `CC(C)c1ccccc1-c1ncc2[nH]c(=O)n(Cc3ccc(-c4nc(C(F)(F)F)cn4C)cc3)c2n1`, for which the IC50 in data set [7] stood at 4.1 nM.
For `Nc1nn2cc(F)cnc2c1C(=O)Nc1cncc(F)c1N1CCC(C(=O)N2CCN(C3COC3)CC2)CC1` [M4344], the IC50 with LoVo was 86 nM.
Consider `COc1ccccc1NS(=O)(=O)c1cc(C(=O)O)ccc1C`, for which the IC50 in data set [4] was 2000 nM.
In the case of `C[C@@H]1COCCN1c1cc(N=[S@@](C)(=O)C2CC2)nc(-c2ccnc(N)c2)n1`, in the data set with HEK293, the IC50 turned out to be 7900 nM.
`Cc1ncc(Cn2c(=O)c3cc(S(=O)(=O)NC4(C)CC4)ccc3n(CC3CC3)c2=O)s1` gave a CLH in [8] of 78 µL/min/mg.
